Test results from the NIST ThermoML archive (doi:10.1016/j.jct.2004.12.005).
± gives the expanded uncertainty stated by the source.

Tests used:
[1] = 298.15 K; 101.33 kPa; Liquid
[2] = excess molar enthalpy (molar enthalpy of mixing); xn = mol fraction of the nth substance listed; details: 298.15 K, 101.3 kPa, Liquid, Flow calorimetry

`C1CCOC1` [tetrahydrofuran] gave a mass density [1] of 882.09 ± 0.6 kg/m3.
In the case of `CCCCCCCCCCCC` [dodecane], the mass density [1] is reported as 745.38 ± 0.78 kg/m3.
For `COC(C)(C)C` [2-methoxy-2-methylpropane] + C1CCOC1, the excess molar enthalpy ([2]; x2 = 0.1015) was 0.0082 ± 0.000311 kcal/mol, the excess molar enthalpy ([2]; x2 = 0.1924) was 0.0143 ± 0.000382 kcal/mol and the excess molar enthalpy ([2]; x2 = 0.2745) was 0.0186 ± 0.00043 kcal/mol. It also gave an excess molar enthalpy ([2]; x2 = 0.3482) of 0.0216 ± 0.000454 kcal/mol, an excess molar enthalpy ([2]; x2 = 0.4173) of 0.0234 ± 0.000478 kcal/mol and an excess molar enthalpy ([2]; x2 = 0.4784) of 0.0244 ± 0.000478 kcal/mol. For the same compound, the excess molar enthalpy ([2]; x2 = 0.5358) was 0.0248 ± 0.000478 kcal/mol, the excess molar enthalpy ([2]; x2 = 0.5883) was 0.0243 ± 0.000478 kcal/mol and the excess molar enthalpy ([2]; x2 = 0.6368) was 0.0233 ± 0.000478 kcal/mol. The excess molar enthalpy ([2]; x2 = 0.6821) was 0.0221 ± 0.000454 kcal/mol, the excess molar enthalpy ([2]; x2 = 0.7242) was 0.0206 ± 0.000454 kcal/mol and the excess molar enthalpy ([2]; x2 = 0.7626) was 0.0188 ± 0.00043 kcal/mol. It also gave an excess molar enthalpy ([2]; x2 = 0.7994) of 0.0168 ± 0.000406 kcal/mol, an excess molar enthalpy ([2]; x2 = 0.8338) of 0.0146 ± 0.000382 kcal/mol and an excess molar enthalpy ([2]; x2 = 0.8655) of 0.0123 ± 0.000359 kcal/mol. It also gave an excess molar enthalpy ([2]; x2 = 0.8799) of 0.0112 ± 0.000359 kcal/mol, an excess molar enthalpy ([2]; x2 = 0.9246) of 0.00739 ± 0.000311 kcal/mol and an excess molar enthalpy ([2]; x2 = 0.9507) of 0.00473 ± 0.000287 kcal/mol. The excess molar enthalpy ([2]; x2 = 0.9761) was 0.00241 ± 0.000263 kcal/mol.
For `COC(C)(C)C` [2-methoxy-2-methylpropane], the mass density [1] was 735.99 ± 0.73 kg/m3.
Compound `CC1CCCO1` (configuration not stated) [2-methyltetrahydrofuran] has a mass density [1] of 848.1 ± 0.64 kg/m3.
`CC1CCCO1` (configuration not stated) [2-methyltetrahydrofuran] + COC(C)(C)C showed an excess molar enthalpy ([2]; x1 = 0.0499) of 0.00159 ± 0.000263 kcal/mol, an excess molar enthalpy ([2]; x1 = 0.0998) of 0.00298 ± 0.000263 kcal/mol and an excess molar enthalpy ([2]; x1 = 0.1498) of 0.00424 ± 0.000287 kcal/mol. It also gave an excess molar enthalpy ([2]; x1 = 0.2002) of 0.00541 ± 0.000287 kcal/mol, an excess molar enthalpy ([2]; x1 = 0.2501) of 0.00635 ± 0.000311 kcal/mol and an excess molar enthalpy ([2]; x1 = 0.3004) of 0.00717 ± 0.000311 kcal/mol. The excess molar enthalpy ([2]; x1 = 0.3504) was 0.00788 ± 0.000311 kcal/mol, the excess molar enthalpy ([2]; x1 = 0.4001) was 0.00821 ± 0.000335 kcal/mol and the excess molar enthalpy ([2]; x1 = 0.4501) was 0.00859 ± 0.000335 kcal/mol. It also gave an excess molar enthalpy ([2]; x1 = 0.5007) of 0.00875 ± 0.000335 kcal/mol, an excess molar enthalpy ([2]; x1 = 0.5495) of 0.00884 ± 0.000335 kcal/mol and an excess molar enthalpy ([2]; x1 = 0.5999) of 0.00859 ± 0.000335 kcal/mol. The excess molar enthalpy ([2]; x1 = 0.6501) was 0.00815 ± 0.000311 kcal/mol, the excess molar enthalpy ([2]; x1 = 0.7002) was 0.00753 ± 0.000311 kcal/mol and the excess molar enthalpy ([2]; x1 = 0.7508) was 0.00673 ± 0.000311 kcal/mol. It also gave an excess molar enthalpy ([2]; x1 = 0.8) of 0.00582 ± 0.000311 kcal/mol, an excess molar enthalpy ([2]; x1 = 0.8509) of 0.00473 ± 0.000287 kcal/mol and an excess molar enthalpy ([2]; x1 = 0.9) of 0.00338 ± 0.000263 kcal/mol. It also gave an excess molar enthalpy ([2]; x1 = 0.95) of 0.00184 ± 0.000263 kcal/mol.
